Experimental data taken from patent publication US20130109682A1, “CYCLIC ETHER COMPOUNDS USEFUL AS KINASE INHIBITORS” (NOVARTIS AG, priority 2010, published 2013).
Like-named read-outs stand apart in the source and are kept apart here.

Legend:
Type in all cases: biochemical
PKCα = PKCα (Homo sapiens, UniProt P17252); test: PKCα kinase Caliper assay; details: read-out: PKC IC50
Experimental: PKCα and cABLT315 Kinase Caliper Assays
Assays were performed in 384 well microtiter plates. Each assay plate contained 8-point serial dilutions for test compounds, as well as two 16-point serial dilutions of staurosporine as reference compound, plus 16 high- and 16 low controls. Liquid handling and incubation steps were done on a Thermo CatX workstation equipped with a Innovadyne Nanodrop Express. Between pipetting steps, tips were cleaned in wash cycles using wash buffer. Plates with terminated kinase reactions were transferred to the Caliper LC3000 workstations for reading. Phosphorylated and unphosphorylated peptides were separated using the Caliper microfluidic mobilitishift technology and Kinase activities were calculated from the amounts of formed phospho-peptide.
1. 0.05 μA Compound (start with 1.8 mM in 90% DMSO/10% H2O)
2. +4.5 μl 2× peptide/ATP solution
3. +4.5 μl 2× enzyme solution
4. Incubate for 60 min at 30° C.
4. +16 μl stop/run buffer
Independent of the kinase, all reactions were done performed in 50 mM HEPES, pH 7.5, 1 mM DTT, 0.02% Tween20, 0.02% BSA, and 0.6% DMSO.

GSK3β = GSK3β (Homo sapiens, UniProt P49841); test: GSK3β ATP depletion assay; details: read-out: GSK3b IC50
Sequence of GSK3β (P49841 whole entry, species assumed): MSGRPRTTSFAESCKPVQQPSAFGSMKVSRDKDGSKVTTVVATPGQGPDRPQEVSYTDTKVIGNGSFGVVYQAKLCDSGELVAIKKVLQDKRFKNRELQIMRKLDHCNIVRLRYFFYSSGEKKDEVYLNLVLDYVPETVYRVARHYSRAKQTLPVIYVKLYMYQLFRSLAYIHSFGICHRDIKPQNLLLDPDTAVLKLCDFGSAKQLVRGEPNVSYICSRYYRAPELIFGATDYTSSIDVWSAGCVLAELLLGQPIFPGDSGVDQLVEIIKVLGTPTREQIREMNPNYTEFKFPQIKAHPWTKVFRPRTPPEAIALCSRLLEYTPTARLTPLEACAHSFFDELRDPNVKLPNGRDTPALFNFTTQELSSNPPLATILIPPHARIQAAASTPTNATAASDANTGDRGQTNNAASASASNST
Summary of the method: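 Human GSK3β (5 nM) preincubated 15 min with 10 μM biotinylated phospho-CREB peptide in pH 7.5 Tris buffer (15 mM MgCl2, 1 mM DTT, 0.1% BSA, 2.5% DMSO). Reaction started with 2 μM ATP and run to about 50% ATP depletion. Remaining ATP measured by KinaseGlo luminescence.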

PDGFRaV561D kinase = PDGFRaV561D kinase (Homo sapiens, UniProt P16234, V561D); test: PDGFRaV561D kinase inhibition assay (LanthaScreen TR-FRET); details: read-out: PDGFRa IC50
Sequence of PDGFRaV561D kinase (P16234 24-1089 V561D): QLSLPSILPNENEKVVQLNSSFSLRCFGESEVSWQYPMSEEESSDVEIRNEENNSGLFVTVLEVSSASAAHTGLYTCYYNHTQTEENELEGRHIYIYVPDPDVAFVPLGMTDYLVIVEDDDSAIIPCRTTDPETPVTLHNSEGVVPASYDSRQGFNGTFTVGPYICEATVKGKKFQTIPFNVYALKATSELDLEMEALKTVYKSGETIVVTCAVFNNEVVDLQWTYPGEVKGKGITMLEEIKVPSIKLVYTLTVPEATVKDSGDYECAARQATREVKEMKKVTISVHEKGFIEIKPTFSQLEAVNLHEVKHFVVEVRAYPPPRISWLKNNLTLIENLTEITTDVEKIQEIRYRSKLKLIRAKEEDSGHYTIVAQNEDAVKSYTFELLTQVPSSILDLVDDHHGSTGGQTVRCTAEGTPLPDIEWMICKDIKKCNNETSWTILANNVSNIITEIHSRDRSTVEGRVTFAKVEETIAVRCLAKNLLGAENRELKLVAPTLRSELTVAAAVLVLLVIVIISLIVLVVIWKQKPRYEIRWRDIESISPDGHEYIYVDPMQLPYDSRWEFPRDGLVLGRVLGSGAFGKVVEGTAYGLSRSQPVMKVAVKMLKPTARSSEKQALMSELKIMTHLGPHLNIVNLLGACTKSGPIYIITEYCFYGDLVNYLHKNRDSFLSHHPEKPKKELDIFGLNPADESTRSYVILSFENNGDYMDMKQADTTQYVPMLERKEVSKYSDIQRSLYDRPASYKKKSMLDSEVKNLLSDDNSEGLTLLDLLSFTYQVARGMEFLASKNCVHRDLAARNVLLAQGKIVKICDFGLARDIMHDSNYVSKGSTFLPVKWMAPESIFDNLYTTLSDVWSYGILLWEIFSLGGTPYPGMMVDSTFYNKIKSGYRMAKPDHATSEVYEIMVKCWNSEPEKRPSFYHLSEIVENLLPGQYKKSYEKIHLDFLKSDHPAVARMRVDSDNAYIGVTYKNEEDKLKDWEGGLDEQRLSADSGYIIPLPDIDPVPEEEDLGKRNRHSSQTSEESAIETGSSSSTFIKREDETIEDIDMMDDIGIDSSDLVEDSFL
Experimental: PDGFRaV561D Kinase Inhibition Assay
LanthaScreen™ is the detection of Time-Resolved Fluorescence Resonance Energy Transfer (TR-FRET) using lanthanide chelates to measure interactions between various binding partners. The application of TR-FRET to assay kinase activity was first described by Mathis (1995). A TR-FRET assay was used to measure PDGFRaV561D kinase inhibitory activity. The assay panel was run on a Biomek FX liquid handling workstations. To the assay plates containing […] compound or control solutions, 4.5 μL of buffer A (50 mM TRIS-HCl pH 7.4, 2 mM DTT, 0.02% Tween 20, 0.02 mM Na3VO4, H2O nanpure) including a generic concentration of ATP (2 μM f.c.) was added per well, followed by […] of buffer B (4 uM ATP in Buffer A) including a generic concentration of polyEAY (50 nM f.c.), PDGFRaV561D kinase, and divalent cations. Final concentration of kinase and cations were: [PDGFRaV561D kinase]=4.4 nM, [Mn]=10 mM. After 1 hour of incubation the kinase reactions were stopped by the addition of 4.5 μL of stop solution D (50 mM EDTA, 20 mM TRIS-HCl pH 7.4, 0.04% NP-40) immediately followed by 4.5 μL of buffer A (50 mM TRIS-HCl pH 7.4, 2 mM DTT, 0.02% Tween 20, 0.02 mM Na3VO4, H2O nanpure) including the Tb-labeled P-20 antibody to give a total detection volume of […]. After an incubation time of 45 min in the dark, the plates were transferred into the Pherastar fluorescence reader for counting. The effect of compound on the enzymatic activity was obtained from the linear progress curves and determined from one reading (end point measurement).

SMILES | IC50 (PKCα) [nM] | IC50 (GSK3β) [nM] | IC50 (PDGFRaV561D kinase) [nM] | IC50 (PKCα; PKCα Caliper assay) [nM] | IC50 (GSK3β; ATP depletion assay) [nM]
C[C@H]1O[C@@H](c2ccncc2NC(=O)c2nc(-c3ccccc3)ncc2N)C[C@@H](O)[C@]1(C)O [Example 32, 5-amino-N-(4-((2R,4R,5S,6R)-4,5-dihydroxy-5,6-dimethyltetrahydro-2H-pyran-2-yl)pyridin-3-yl)-2-phenylpyrimidine-4-carboxamide] | > 10000 | 454 |  |  | 
CC[C@H]1O[C@@H](c2ccncc2NC(=O)c2nc(-c3ccccc3)ncc2N)C[C@@H](O)[C@@H]1O [Example 39, 5-amino-N-(4-((2R,4R,5S,6R)-6-ethyl-4,5-dihydroxytetrahydro-2H-pyran-2-yl)pyridin-3-yl)-2-phenylpyrimidine-4-carboxamide] | > 10000 | 267 |  |  | 
C[C@H]1O[C@@H](c2ccncc2NC(=O)c2nc(-c3ccccc3)cnc2N)[C@H](F)[C@@H](O)[C@]1(C)O [Example 58, 3-amino-N-(4-((2S,3R,4S,5S,6R)-3-fluoro-4,5-dihydroxy-5,6-dimethyltetrahydro-2H-pyran-2-yl)pyridin-3-yl)-6-phenylpyrazine-2-carboxamide] | 820 | 1 |  |  | 
C[C@@H]1O[C@H](c2ccncc2NC(=O)c2nc(-c3ccccc3)cnc2N)[C@@H](F)[C@H](O)[C@@]1(C)O [Example 63, 3-amino-N-(4-((2R,3S,4R,5R,6S)-3-fluoro-4,5-dihydroxy-5,6-dimethyltetrahydro-2H-pyran-2-yl)pyridin-3-yl)-6-phenylpyrazine-2-carboxamide] | 41 | 2 |  |  | 
CC[C@]1(O)[C@H](O)C[C@H](c2ccncc2NC(=O)c2nc(-c3c(F)cccc3F)ncc2N)O[C@@H]1C [Example 143, 5-amino-2-(2,6-difluorophenyl)-N-(4-((2R,4R,5S,6R)-5-ethyl-4,5-dihydroxy-6-methyltetrahydro-2H-pyran-2-yl)pyridin-3-yl)pyrimidine-4-carboxamide] | > 10000 | 102 | > 10000 |  | 
CC[C@]1(O)[C@H](N)C[C@H](c2ccncc2NC(=O)c2nc(-c3ccccc3)cnc2N)O[C@@H]1C [Example 187, 3-amino-N-(4-((2R,4R,5S,6R)-4-amino-5-ethyl-5-hydroxy-6-methyltetrahydro-2H-pyran-2-yl)pyridin-3-yl)-6-phenylpyrazine-2-carboxamide] |  |  | 25 | 50 | 3.3
CC[C@]1(O)[C@H](C)O[C@H](c2ccncc2NC(=O)c2nc(-c3ccccc3)cnc2N)C[C@@H]1N [Example 189, 3-amino-N-(4-((2S,4S,5R,6S)-4-amino-5-ethyl-5-hydroxy-6-methyltetrahydro-2H-pyran-2-yl)pyridin-3-yl)-6-phenylpyrazine-2-carboxamide] |  |  | 1700 | 710 | 71
CC[C@]1(O)[C@H](N)C[C@H](c2ccncc2NC(=O)c2ccc(F)c(-c3c(F)cccc3F)n2)O[C@@H]1C [Example 232, N-(4-((2R,4R,5S,6R)-4-amino-5-ethyl-5-hydroxy-6-methyltetrahydro-2H-pyran-2-yl)pyridin-3-yl)-6-(2,6-difluorophenyl)-5-fluoropicolinamide] |  |  | 630 | 9500 | 
CC(C)(C)[C@H]1O[C@@H](c2ccncc2NC(=O)c2nc(-c3ccccc3)cnc2N)C[C@H](N)[C@@H]1O [Example 286, 3-amino-N-(4-((2R,4S,5S,6R)-4-amino-6-tert-butyl-5-hydroxytetrahydro-2H-pyran-2-yl)pyridin-3-yl)-6-phenylpyrazine-2-carboxamide] |  |  | 280 |  | 0.5

Second part, the compound after the results:

IC50 (PKCα) [nM] | IC50 (GSK3β) [nM] | IC50 (PDGFRaV561D kinase) [nM] | IC50 (PKCα; PKCα Caliper assay) [nM] | IC50 (GSK3β; ATP depletion assay) [nM] | SMILES
60 | 1 |  |  |  | C=C1[C@@H](O)C[C@@H](c2ccncc2NC(=O)c2nc(-c3ccccc3)cnc2N)OC12CC2 [Example 5, 3-amino-N-(4-((5S,7S)-7-hydroxy-8-methylene-4-oxaspiro[2.5]octan-5-yl)pyridin-3-yl)-6-phenylpyrazine-2-carboxamide]
100 | 1 |  |  |  | Nc1ncc(-c2ccccc2)nc1C(=O)Nc1cnccc1[C@H]1C[C@@H](O)[C@H](O)[C@@H](CCl)O1 [Example 36, 3-amino-N-(4-((2R,4R,5S,6S)-6-(chloromethyl)-4,5-dihydroxytetrahydro-2H-pyran-2-yl)pyridin-3-yl)-6-phenylpyrazine-2-carboxamide]
490 | 1 |  |  |  | C[C@H]1O[C@@H](c2ccncc2NC(=O)c2nc(-c3ccccc3)cnc2N)C[C@@H](O)[C@]1(C)O [Example 84, 3-amino-N-(4-((2R,4R,5S,6R)-4,5-dihydroxy-5,6-dimethyltetrahydro-2H-pyran-2-yl)pyridin-3-yl)-6-phenylpyrazine-2-carboxamide]
790 | 3 |  |  |  | C[C@@H]1O[C@H](c2ccncc2NC(=O)c2nc(-c3ccccc3)cnc2N)C[C@H](O)[C@@]1(C)O [Example 86, 3-amino-N-(4-((2S,4S,5R,6S)-4,5-dihydroxy-5,6-dimethyltetrahydro-2H-pyran-2-yl)pyridin-3-yl)-6-phenylpyrazine-2-carboxamide]
310 | 1.4 | 48 |  |  | Nc1ncc(-c2ccccc2)nc1C(=O)Nc1cnccc1[C@H]1C[C@@H](O)[C@@]2(O)CCCC[C@H]2O1 [Example 173, 3-amino-N-(4-((2R,4R,4aS,8aR)-4,4a-dihydroxyoctahydro-2H-chromen-2-yl)pyridin-3-yl)-6-phenylpyrazine-2-carboxamide]
2600 | 48.5 | 8000 |  |  | Nc1ncc(-c2ccccc2)nc1C(=O)Nc1cnccc1[C@@H]1C[C@H](O)[C@]2(O)CCCC[C@@H]2O1 [Example 176, 3-amino-N-(4-((2S,4S,4aR,8aS)-4,4a-dihydroxyoctahydro-2H-chromen-2-yl)pyridin-3-yl)-6-phenylpyrazine-2-carboxamide]
> 10000 | 4250 | > 10000 |  |  | O=C(Nc1cnccc1[C@H]1C[C@@H](O)[C@@]2(O)CCCC[C@H]2O1)c1c[nH]cc(-c2ccccc2)c1=O [Example 178, N-(4-((2R,4R,4aS,8aR)-4,4a-dihydroxyoctahydro-2H-chromen-2-yl)pyridin-3-yl)-4-oxo-5-phenyl-1,4-dihydropyridine-3-carboxamide]
 |  | 23 | 34 | 4.4 | Nc1ncc(-c2ccccc2)nc1C(=O)Nc1cnccc1[C@H]1C[C@@H](N)[C@@]2(O)CCC[C@H]2O1 [Example 183, 3-amino-N-(4-((2R,4R,4aS,7aR)-4-amino-4a-hydroxyoctahydrocyclopenta[b]pyran-2-yl)pyridin-3-yl)-6-phenylpyrazine-2-carboxamide]
 |  | 4100 | 650 | 670 | Nc1ncc(-c2ccccc2)nc1C(=O)Nc1cnccc1[C@@H]1C[C@H](N)[C@]2(O)CCC[C@@H]2O1 [Example 185, 3-amino-N-(4-((2S,4S,4aR,7aS)-4-amino-4a-hydroxyoctahydrocyclopenta[b]pyran-2-yl)pyridin-3-yl)-6-phenylpyrazine-2-carboxamide]
760 | 40 | > 10000 |  |  | Nc1ncc(-c2ccccc2)nc1C(=O)Nc1cnccc1[C@@H]1C[C@H](O)[C@]2(O)CCC[C@@H]2O1 [Example 186, 3-amino-N-(4-((2S,4S,4aR,7aS)-4,4a-dihydroxyoctahydrocyclopenta[b]pyran-2-yl)pyridin-3-yl)-6-phenylpyrazine-2-carboxamide]
 |  | 18 |  | 0.4 | C[C@]1(O)[C@@H](N)C[C@H](c2ccncc2NC(=O)c2nc(-c3ccccc3)cnc2N)OC12CC2 [Example 351, 3-amino-N-(4-((5R,7S,8S)-7-amino-8-hydroxy-8-methyl-4-oxaspiro[2.5]octan-5-yl)pyridin-3-yl)-6-phenylpyrazine-2-carboxamide]
